Test: Acyl group migration (rearrangement) of pro-drug in DMSO-d6/buffer solution monitored by 19F-NMR
Type: physicochemical
Experimental: A compound of formula (I) OR (X) (5 mg) is dissolved in DMSO-d6 (500 μL) and either pH 4 buffer solution (500 μL, potassium hydrogen phthalate buffer) or pH 7 buffer solution (500 μL, sodium and potassium phosphate buffer) is added. The sample is then heated to 40° C. The O-acyl or N-acyl to N-terminal N-acyl migration is monitored by observing the change in chemical shift for the aromatic fluorines using ^19F-NMR. (Fluorine shifts associated with the desired migration were confirmed by spiking with authentic analogue). The sample is analyzed by ^19F-NMR at approxiamately 0, 1.5, 3, 24, 48, and 144 hours. The amount of O-acyl pro-drug, N-acyl pro-drug, and desired migration product at each time point are assigned by integrating the corresponding NMR signal.
N˜1˜-[(2R,3S)-3-amino-4-(3,5-difluorophenyl)-2-hydroxybutyl]-5-(1,3-oxazol-2-yl)-N˜3˜,N˜3˜-dipropyl-N˜1˜-[3-(trifluoromethyl)benzyl]isophthalamide hydrochloride (PREPARATION 7, 5 mg) is dissolved in DMSO-d6 (500 μL) and pH 4 buffer solution (500 μL, potassium hydrogen phthalate buffer) is added. The sample is then heated to 40° C. The N-acyl to N-terminal N-acyl migration is monitored by observing the change in chemical shift for the aromatic fluorines using ^19F-NMR. (Fluorine shifts for the desired migration product in the presence of buffer was confirmed by spiking with authentic migration product, N^1-((1S,2R)-1-(3,5-difluorobenzyl)-2-hydroxy-3-{[3-(trifluoromethyl)benzyl]amino}propyl)-5-(1,3-oxazol-2-yl)-N^3,N^3-dipropylisophthalamide.) NMR data is collected at 0, 1, 3, 25, 48, 96, and 144 hours. The amount of N-acyl pro-drug and desired migration product present at each time point is assigned by integrating the corresponding NMR signal.
The following examples illustrate the solution acyl group migration of compounds of the formulae (I) and (X) as observed by ^19F NMR spectroscopy. Data were collected as described in Example 1, above.

CCCN(CCC)C(=O)c1cc(C(=O)N(Cc2cccc(C(F)(F)F)c2)C[C@@H](O)[C@@H](N)Cc2cc(F)cc(F)c2)cc(-c2ncco2)c1.Cl [N˜1˜-[(2R,3S)-3-amino-4-(3,5-difluorophenyl)-2-hydroxybutyl]-5-(1,3-oxazol-2-yl)-N˜3˜,N˜3˜-dipropyl-N˜1˜-[3-(trifluoromethyl)benzyl]isophthalamide hydrochloride]
migration of N-acyl pro-drug to O-acyl pro-drug (pH 4 buffer/DMSO-d6, 40° C., 0 to 144 hours, 19F-NMR): No migration to O-acyl pro-drug was observed

CCCN(CCC)C(=O)c1cc(C(=O)O[C@H](CNC2(c3cccc(CC)c3)CC2)[C@@H](N)Cc2cc(F)cc(F)c2)cc(-c2ncco2)c1.Cl.Cl [Preparation 17, (1R,2S)-2-amino-3-(3,5-difluorophenyl)-1-({[1-(3-ethylphenyl)cyclopropyl]amino}methyl)propyl 3-[(dipropylamino)carbonyl]-5-(1,3-oxazol-2-yl)benzoate dihydrochloride]
HEA product (% present) (pH 4, 40° C., time 0 hr): 0%
N-acyl prodrug (% present) (pH 4, 40° C., time 0 hr): 0%
O-acyl pro-drug (% present) (pH 4, 40° C., time 0 hr): 100%
HEA product (% present) (pH 4, 40° C., time 1.5 hr): 47%
N-acyl prodrug (% present) (pH 4, 40° C., time 1.5 hr): 0%
O-acyl pro-drug (% present) (pH 4, 40° C., time 1.5 hr): 53%
HEA product (% present) (pH 4, 40° C., time 3 hr): 67%
N-acyl prodrug (% present) (pH 4, 40° C., time 3 hr): 0%
O-acyl pro-drug (% present) (pH 4, 40° C., time 3 hr): 33%
HEA product (% present) (pH 4, 40° C., time 6 hr): 89%
N-acyl prodrug (% present) (pH 4, 40° C., time 6 hr): 0%
O-acyl pro-drug (% present) (pH 4, 40° C., time 6 hr): 11%
HEA product (% present) (pH 4, 40° C., time 24 hr): 100%
N-acyl prodrug (% present) (pH 4, 40° C., time 24 hr): 0%
O-acyl pro-drug (% present) (pH 4, 40° C., time 24 hr): 0%
HEA product (% present) (pH 7, 40° C., time 0 hr): 0%
N-acyl prodrug (% present) (pH 7, 40° C., time 0 hr): 0%
O-acyl pro-drug (% present) (pH 7, 40° C., time 0 hr): 100%
HEA product (% present) (pH 7, 40° C., time 1.5 hr): 97%
N-acyl prodrug (% present) (pH 7, 40° C., time 1.5 hr): 0%
O-acyl pro-drug (% present) (pH 7, 40° C., time 1.5 hr): 3%
N-acyl prodrug (% present) (pH 7, 40° C., time 7 hr): 0%
N-acyl prodrug (% present) (pH 7, 40° C., time 24 hr): 0%
N-acyl prodrug (% present) (pH 7, 40° C., time 48 hr): 0%
N-acyl prodrug (% present) (pH 7, 40° C., time 144 hr): 0%

From patent US7294642B2, “1,3-Diamino-2-hydroxypropane pro-drug derivatives” (Elan Pharmaceuticals, Inc., priority 2002, dated 2007)
